For five compounds, EC50 and CC50 results are on record in ChEMBL document CHEMBL1159379, “Rhuschalcones II-VI, five new bichalcones from the root bark of Rhus pyroides” (2003).

In brackets after ≈: the same amount, converted by molar mass.

Holding throughout (type): functional
In one assay the test system is COLO 205. The assay is described as follows: Cytotoxicity against human COLO205 cells. The settings on record: read-out: ED50 (the source's name).
The subject of another assay is HCT-116. The assay is described as follows: Cytotoxicity against human HCT116 cells. The settings on record: read-out: ED50 (the source's name).
A further assay has as its system HT-29. The assay is described as follows: Cytotoxicity against human HT-29 cells. The settings on record: read-out: ED50 (the source's name).
Another assay concerns SK-MEL-5. The assay is described as follows: Cytotoxicity against human SK-MEL-5 cells. The conditions noted are these: read-out: LC50 (the source's name).
The test system of another assay is SK-MEL-28. The assay is described as follows: Cytotoxicity against human SK-MEL-28 cells. The conditions noted are these: read-out: LC50 (the source's name).
Another assay deals with UACC-62. The assay is described as follows: Cytotoxicity against human UACC62 cells. The conditions noted are these: read-out: LC50 (the source's name).
A further assay concerns HCT-15. The assay is described as follows: Cytotoxicity against human HCT15 cells. The conditions noted are these: read-out: ED50 (the source's name).
In a further assay the test system is SW-620. The assay is described as follows: Cytotoxicity against human SW620 cells. The settings on record: read-out: ED50 (the source's name).
Another assay deals with KM12. The assay is described as follows: Cytotoxicity against human KM12 cells. The conditions noted are these: read-out: ED50 (the source's name).

Regarding `O=C(/C=C/c1ccc(O)c(-c2cc(C(=O)/C=C/c3ccc(O)cc3)c(O)cc2O)c1)c1ccc(O)cc1O` [RHUSCHALCONE VI], the values for the EC50 in the assay with COLO 205, with HCT-116 and with HT-29 were 24 µg/mL (≈ 47 µM), 5 µg/mL (≈ 9.79 µM) and 10 µg/mL (≈ 19.6 µM), respectively.
In the case of `COc1cc(O)c(C(=O)/C=C/c2ccc(O)cc2)cc1Oc1ccc(C(=O)/C=C/c2ccc(O)cc2)c(O)c1` [RHUSCHALCONE IV], in the assay with COLO 205, the EC50 is 23 µg/mL (≈ 43.8 µM). The CC50 in the assay on SK-MEL-5 came to 4.8 µg/mL (≈ 9.15 µM); with SK-MEL-28, 4.6 µg/mL (≈ 8.77 µM); with UACC-62, 4.6 µg/mL (≈ 8.77 µM).
`COc1cc(O)c(C(=O)/C=C/c2ccc(O)cc2)cc1Oc1ccc(/C=C/C(=O)c2ccc(O)cc2O)cc1` [RHUSCHALCONE III]: the EC50 in the assay on HCT-15 came out at 4 µg/mL (≈ 7.63 µM); in the assay with SW-620 it was 3 µg/mL (≈ 5.72 µM); in the assay on KM12, 4 µg/mL (≈ 7.63 µM); with COLO 205, 4 µg/mL (≈ 7.63 µM); in the assay on HCT-116 it was 5 µg/mL (≈ 9.53 µM); with HT-29 it was 3 µg/mL (≈ 5.72 µM).
As for `COc1ccc(C(=O)/C=C/c2ccc(Oc3cc(C(=O)/C=C/c4ccc(O)cc4)c(O)cc3OC)cc2)c(O)c1` [RHUSCHALCONE I], the EC50 with HCT-15 turned out to be 51 µg/mL (≈ 94.7 µM); in the assay on SW-620 it was 42 µg/mL (≈ 78 µM); with KM12 it was 17 µg/mL (≈ 31.6 µM); with COLO 205, 11 µg/mL (≈ 20.4 µM); in the assay on HCT-116, 5 µg/mL (≈ 9.28 µM); with HT-29, 3 µg/mL (≈ 5.57 µM).
On to `O=C(/C=C/c1ccc(Oc2cc(C(=O)/C=C/c3ccc(O)cc3)c(O)cc2O)cc1)c1ccc(O)cc1O` [RHUSCHALCONE II], for which the EC50 in the assay on KM12 stood at 19 µg/mL (≈ 37.2 µM); in the assay with COLO 205 it was 15 µg/mL (≈ 29.4 µM); in the assay on HCT-116 it was 15 µg/mL (≈ 29.4 µM); with HT-29 it was 14 µg/mL (≈ 27.4 µM).
